# Measurements as given in patent publication EP3623369A1, “NOVEL MORPHOLINYL AMINE COMPOUNDS FOR THE TREATMENT OF AUTOIMMUNE DISEASE” (F. Hoffmann-La Roche AG, priority 2018, dated 2020).
# Biological target: T1, hTLR7 (Homo sapiens, UniProt Q9NYK1)
# T1 sequence (Q9NYK1 27-1049): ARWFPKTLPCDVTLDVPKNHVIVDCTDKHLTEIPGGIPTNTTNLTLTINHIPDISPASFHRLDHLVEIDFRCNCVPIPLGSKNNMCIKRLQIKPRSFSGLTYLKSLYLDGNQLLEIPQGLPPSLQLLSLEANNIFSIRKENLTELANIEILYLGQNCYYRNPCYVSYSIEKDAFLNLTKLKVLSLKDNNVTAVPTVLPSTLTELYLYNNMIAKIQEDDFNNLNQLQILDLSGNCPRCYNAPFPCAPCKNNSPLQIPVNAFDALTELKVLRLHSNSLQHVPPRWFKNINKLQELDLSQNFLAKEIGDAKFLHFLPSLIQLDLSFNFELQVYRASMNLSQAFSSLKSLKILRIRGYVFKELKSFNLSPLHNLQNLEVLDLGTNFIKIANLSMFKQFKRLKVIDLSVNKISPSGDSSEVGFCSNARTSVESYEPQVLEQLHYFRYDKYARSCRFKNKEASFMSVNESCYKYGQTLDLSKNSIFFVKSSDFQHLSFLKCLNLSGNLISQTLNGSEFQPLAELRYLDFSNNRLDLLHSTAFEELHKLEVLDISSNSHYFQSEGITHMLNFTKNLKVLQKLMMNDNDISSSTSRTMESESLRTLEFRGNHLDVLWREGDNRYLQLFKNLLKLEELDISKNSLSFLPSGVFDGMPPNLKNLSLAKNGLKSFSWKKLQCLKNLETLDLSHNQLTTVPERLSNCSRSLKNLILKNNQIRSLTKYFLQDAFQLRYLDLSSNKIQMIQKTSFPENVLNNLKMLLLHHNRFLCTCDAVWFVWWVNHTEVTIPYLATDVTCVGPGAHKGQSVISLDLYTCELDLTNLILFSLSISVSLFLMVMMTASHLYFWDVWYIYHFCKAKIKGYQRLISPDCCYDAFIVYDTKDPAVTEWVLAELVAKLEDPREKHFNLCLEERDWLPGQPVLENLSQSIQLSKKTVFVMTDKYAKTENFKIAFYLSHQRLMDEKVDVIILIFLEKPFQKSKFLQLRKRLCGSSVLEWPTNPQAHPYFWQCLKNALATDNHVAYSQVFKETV
# Assay: HEK293-Blue-hTLR-7 cells assay (SEAP reporter, R848 stimulation)
# Type: cell-based
# Details: HEK293-Blue-hTLR7 cells, R848, 20 hrs; 0.003 is the lowest tested concentration; read-out: HEK/hTLR7 IC50
# Description: The following tests were carried out in order to determine the activity of the compounds of formula (I) or (Ia) in HEK293-Blue-hTLR-7/8/9 cells assay.
# HEK293-Blue-hTLR-7 cells assay:
# A stable HEK293-Blue-hTLR-7 cell line was purchased from InvivoGen (Cat.#: hkb-htlr7, San Diego, California, USA). These cells were originally designed for studying the stimulation of human TLR7 by monitoring the activation of NF-κB. A SEAP (secreted embryonic alkaline phosphatase) reporter gene was placed under the control of the IFN-β minimal promoter fused to five NF-κB and AP-1-binding sites. The SEAP was induced by activating NF-κB and AP-1 via stimulating HEK-Blue hTLR7 cells with TLR7 ligands. Therefore the reporter expression was declined by TLR7 antagonist under the stimulation of a ligand, such as R848 (Resiquimod), for incubation of 20 hrs. The cell culture supernatant SEAP reporter activity was determined using QUANTI-Blue™ kit (Cat.#: rep-qb1, Invivogen, San Diego, Ca, USA) at a wavelength of 640 nm, a detection medium that turns purple or blue in the presence of alkaline phosphatase.
# HEK293-Blue-hTLR7 cells were incubated at a density of 250,000∼450,000 cells/mL in a volume of 170 µL in a 96-well plate in Dulbecco's Modified Eagle's medium (DMEM) containing 4.5 g/L glucose, 50 U/mL penicillin, […], […], 2 mM L-glutamine, 10% (v/v) heat-inactivated fetal bovine serum with addition of 20 µL test compound in a serial dilution in the presence of final DMSO at 1% and 10 µL of 20uM R848 in above DMEM, perform incubation under 37 °C in a CO2 incubator for 20 hrs. Then 20 µL of the supernatant from each well was incubated with 180 µL Quanti-blue substrate solution at 37 °C for 2 hrs and the absorbance was read at 620∼655 nm using a spectrophotometer. The signalling pathway that TLR7 activation leads to downstream NF-κB activation has been widely accepted, and therefore similar reporter assay was modified for evaluating TLR7 antagonist.
row,SMILES,IC50 [nM]
1,"C[C@@H]1CN(c2ccc(C#N)c3ncccc23)C[C@H](CN2Cc3ccc(N4CCNC[C@H]4CO)cc3C2)O1 [Example 83, 5-[(2S,6R)-2-[[5-[(2S)-2-(hydroxymethyl)piperazin-1-yl]isoindolin-2-yl]methyl]-6-methyl-morpholin-4-yl]quinoline-8-carbonitrile]",34
2,"C[C@@H]1CN(c2ccc(C#N)c3ncccc23)C[C@H](CN2Cc3ccc(N4CCN[C@@H](C)C4)cc3C2)O1 [Example 64, 5-[(2R,6S)-2-methyl-6-[[5-[(3S)-3-methylpiperazin-1-yl]isoindolin-2-yl]methyl]morpholin-4-yl]quinoline-8-carbonitrile]",40
3,"C[C@@H]1CN(c2ccc(C#N)c3ncsc23)C[C@H](CN2Cc3cc(N4CCNCC4)cnc3C2)O1 [Example 25, 7-[(2R,6S)-2-methyl-6-[(3-piperazin-1-yl-5,7-dihydropyrrolo[3,4-b]pyridin-6-yl)methyl]morpholin-4-yl]-1,3-benzothiazole-4-carbonitrile]",11
4,"C[C@@H]1CN(c2ccc(C#N)n3ncc(F)c23)C[C@H](CN2Cc3cc(N4CCNCC4)cnc3C2)O1 [Example 29, 3-fluoro-4-[(2R,6S)-2-methyl-6-[(3-piperazin-1-yl-5,7-dihydropyrrolo[3,4-b]pyridin-6-yl)methyl]morpholin-4-yl]pyrazolo[1,5-a]pyridine-7-carbonitrile]",49
5,"C[C@@H]1CN(c2ccc(C#N)c3nccnc23)C[C@H](CN2Cc3cnc(N4CCNCC4)cc3C2)O1 [Example 60, 8-[(2R,6S)-2-methyl-6-[(6-piperazin-1-yl-1,3-dihydropyrrolo[3,4-c]pyridin-2-yl)methyl]morpholin-4-yl]quinoxaline-5-carbonitrile]",11
6,"CC1CN(c2ccc3c(c2)CN(C[C@H]2CN(c4ccc(C#N)c5nccnc45)C[C@@H](C)O2)C3)CCN1 (stereo partly drawn) [Example 36, 8-[(2R,6S)-2-methyl-6-[[5-(3-methylpiperazin-1-yl)isoindolin-2-yl]methyl]morpholin-4-yl]quinoxaline-5-carbonitrile]",10
7,"C[C@@H]1CN(c2ccc(C#N)n3nccc23)C[C@H](CN2CCc3cc(N4CCNCC4)ccc3C2)O1 [Example 10, 4-[(2R,6S)-2-methyl-6-[(6-piperazin-1-yl-3,4-dihydro-1H-isoquinolin-2-yl)methyl]morpholin-4-yl]pyrazolo[1,5-a]pyridine-7-carbonitrile]",81
8,"C[C@@H]1CN(c2ccc(C#N)c3nccnc23)C[C@H](CN2Cc3ccc(N4CCN[C@@H](C)C4)cc3C2)O1 [Example 66, 8-[(2R,6S)-2-methyl-6-[[5-[(3S)-3-methylpiperazin-1-yl]isoindolin-2-yl]methyl]morpholin-4-yl]quinoxaline-5-carbonitrile]",6
9,"C[C@@H]1CN(c2ccc(C#N)c3nccnc23)C[C@H](CN2CCc3cc(N4CCNCC4)ccc3C2)O1 [Example 13, 8-[(2R,6S)-2-methyl-6-[(6-piperazin-1-yl-3,4-dihydro-1H-isoquinolin-2-yl)methyl]morpholin-4-yl]quinoxaline-5-carbonitrile]",3
10,"C[C@@H]1CN(c2ccc(C#N)c3ncccc23)C[C@H](CN2Cc3ccc(N4C5CCC4CNC5)cc3C2)O1 [Example 43, 5-[(2S,6R)-2-[[5-(3,8-diazabicyclo[3.2.1]octan-8-yl)isoindolin-2-yl]methyl]-6-methyl-morpholin-4-yl]quinoline-8-carbonitrile]",60
11,"C[C@@H]1CN(c2ccc(C#N)c3nccnc23)C[C@H](CN2Cc3ccc(N4CC5COCC(C4)N5)cc3C2)O1 [Example 49, 8-[(2R,6S)-2-methyl-6-[[5-(3-oxa-7,9-diazabicyclo[3.3.1]nonan-7-yl)isoindolin-2-yl]methyl]morpholin-4-yl]quinoxaline-5-carbonitrile]",50
12,"C[C@@H]1CN(c2ccc(C#N)n3ncc(F)c23)C[C@H](CN2CCc3cc(N4CCNCC4)ccc3C2)O1 [Example 14, 3-fluoro-4-[(2R,6S)-2-methyl-6-[(6-piperazin-1-yl-3,4-dihydro-1H-isoquinolin-2-yl)methyl]morpholin-4-yl]pyrazolo[1,5-a]pyridine-7-carbonitrile]",21
13,"CC1c2ccc(N3CCNCC3)cc2CN1C[C@H]1CN(c2ccc(C#N)c3ncccc23)C[C@@H](C)O1 (stereo partly drawn) [Example 48, 5-[(2R,6S)-2-methyl-6-[(1-methyl-5-piperazin-1-yl-isoindolin-2-yl)methyl]morpholin-4-yl]quinoline-8-carbonitrile]",238
14,"C[C@@H]1CN(c2ccc(C#N)c3ncccc23)C[C@H](CN2Cc3ccc(N4CCNCC4CO)cc3C2)O1 (stereo partly drawn) [Example 73, 5-[(2S,6R)-2-[[5-[2-(hydroxymethyl)piperazin-1-yl]isoindolin-2-yl]methyl]-6-methyl-morpholin-4-yl]quinoline-8-carbonitrile]",48
15,"C[C@@H]1CN(c2ccc(C#N)c3ncccc23)C[C@H](CN2Cc3ccc(N4CC5COCC(C4)N5)cc3C2)O1 [Example 72, 5-[(2R,6S)-2-methyl-6-[[5-(3-oxa-7,9-diazabicyclo[3.3.1]nonan-7-yl)isoindolin-2-yl]methyl]morpholin-4-yl]quinoline-8-carbonitrile]",45
16,"CCOC(=O)C1CNCCN1c1ccc2c(c1)CN(C[C@H]1CN(c3ccc(C#N)c4ncccc34)C[C@@H](C)O1)C2 (stereo partly drawn) [Example 50, Ethyl 1-[2-[[(2S,6R)-4-(8-cyano-5-quinolyl)-6-methyl-morpholin-2-yl]methyl]isoindolin-5-yl] piperazine-2-carboxylate]",85
17,"C[C@@H]1CN(c2ccc(C#N)c3ncsc23)C[C@H](CN2Cc3ccc(N4CCNCC4)cc3C2)O1 [Example 23, 7-[(2R,6S)-2-methyl-6-[(5-piperazin-1-ylisoindolin-2-yl)methyl]morpholin-4-yl]-1,3-benzothiazole-4-carbonitrile]",6
18,"C[C@@H]1CN(c2ccc3c(c2)CN(C[C@H]2CN(c4ccc(C#N)c5nccnc45)C[C@@H](C)O2)C3)CCN1 [Example 65, 8-[(2R,6S)-2-methyl-6-[[5-[(3R)-3-methylpiperazin-1-yl]isoindolin-2-yl]methyl]morpholin-4-yl] quinoxaline-5-carbonitrile]",8
19,"C[C@@H]1CN(c2ccc(C#N)c3nccnc23)C[C@H](CN2Cc3cc(N4CCNCC4)cnc3C2)O1 [Example 30, 8-[(2R,6S)-2-methyl-6-[(3-piperazin-1-yl-5,7-dihydropyrrolo[3,4-b]pyridin-6-yl)methyl]morpholin-4-yl]quinoxaline-5-carbonitrile]",16
20,"C[C@@H]1CN(c2ccc(C#N)n3nccc23)C[C@H](CN2CCc3cc(N4CCN(C)CC4)ccc3C2)O1 [Example 15, 4-[(2R,6S)-2-methyl-6-[[6-(4-methylpiperazin-1-yl)-3,4-dihydro-1H-isoquinolin-2-yl]methyl]morpholin-4-yl]pyrazolo[1,5-a]pyridine-7-carbonitrile]",37
21,"C[C@@H]1CN(c2ccc(C#N)n3nccc23)C[C@H](CN2Cc3ccncc3C2)O1 [Example R2, 4-[(2S,6R)-2-(1,3-dihydropyrrolo[3,4-c]pyridin-2-ylmethy1)-6-methyl-morpholin-4-yl]pyrazolo[1,5-a]pyridine-7-carbonitrile, reference compound]",722
